{"source": "paper PMC9469208", "about": "(Journal of Medicinal Chemistry, 2022)", "key": {"[1]": {"test_system": "NMDA receptors (tonic NMDA currents)"}, "[2]": {"test_system": "PTZ-induced seizures in mice", "settings": "mouse, in vivo; cited from earlier work"}, "[3]": {"test_system": "maximal electroshock seizures in mice", "settings": "mouse, in vivo; cited from earlier work"}, "[4]": {"test_system": "6 Hz (32 mA) seizures in mice", "settings": "mouse, in vivo; cited from earlier work"}}, "data": [{"compound": "NC(CCCP(=O)(O)O)C(=O)O", "note": "(centres unmarked) [AP-5]", "values": [{"measurement": "effect on tonic NMDA currents", "setting": "[1]", "result": "fully inhibited"}]}, {"compound": "C=C(C)[C@@H]1CCC(C)=C[C@H]1c1c(O)cc(CCCCC)cc1O", "note": "[CBD, cannabidiol]", "values": [{"measurement": "ED50 (scPTZ)", "setting": "[2]", "result": "120 (98.5–146) mg/kg"}, {"measurement": "ED50 (MES)", "setting": "[3]", "result": "80 (65.5–96.0) mg/kg"}]}, {"compound": "CCC1(C)CC(=O)NC1=O", "note": "(centres unmarked) [ETX, ethosuximide]", "values": [{"measurement": "ED50 (scPTZ)", "setting": "[2]", "result": "140.4 (115.8–170.2) mg/kg"}, {"measurement": "ED50 (6 Hz 32 mA)", "setting": "[4]", "result": ">200", "unit": "mg/kg"}]}]}
